For this series, the system named is intersegmental vessels of zebrafish embryos. The experiment in a line: In vivo zebrafish angiogenesis assay. Conditions: embryos 20 hpf, incubated 28 hours; for max inhibition of intersegmental vessels formation: 1% DMSO. The procedure: FIG. 6: In vivo zebrafish angiogenesis assay. 20 Hours post fertilization (hpf) embryos Were incubated with compounds and 1% DMSO for 28 hours. Vessels were stained with NBT/BCIP and morphometric analyses were done using the Adobe Photoshop software. For each condition, 10 embryos were analyzed and results were expressed as means±SEM. (A) dose response curves. (B) table presenting the 50% and max inhibition of intersegmental vessels formation together with the percentage of dead embryos (see material and methods).
In vivo zebrafish angiogenesis model: This assay is a viable and validated whole animal model for screening small molecules that affect blood vessel formation (Serbedzija et al, Angiogenesis, 1999). The study was subcontracted to Phylonix Pharmaceutical, Cambridge, Mass., USA. • Drug treatment: Intersegmental vessels (ISVs) in zebrafish are well accepted as angiogenic vessels, and they are easily observed using microscopy. By 20 hpf stage, the major vasculogenic vessels (dorsal aorta and caudal vein) have developed. By 48 hours post fertilization (hpf), ISVs have formed by sprouting from the dorsal aorta and caudal vein. Therefore, 20 hpf was used as the starting point and 48 hpf as the end point for drug treatment. Zebrafish embryos staged at 20 hpf were incubated with compound solution at 28° C. for 28 hours in 6-well plates, 20 embryos per well. Embryos treated with 1% DMSO and 5 μM Flavopiridol were used as negative and positive controls, respectively. • Microscopy: All light microscopy studies were performed using a ZEISS Stemi 2000-C stereomicroscope (Zeiss), equipped with a digital spot camera (Diagnostic Instruments Inc.). Images were further processed and analyzed using Adobe Photoshop 7.0 (Adobe). • Whole mount EAP staining: Embryos were fixed in 4% PFA for 2 hours at room temperature, and dehydrated in 100% ethanol following standard procedures. Embryos were then rehydrated, blocked, and stained with NBT/BCIP. After washing, embryos were examined by microscopy. • Quantitation of anti-angiogenic effects: To quantitate anti-angiogenic effects, 5 well developed trunk ISVs located around the anal pore were selected and morphometric analysis [area (pixel)× signal intensity] was performed using Adobe Photoshop. For each condition, 10 embryos were assessed and the mean value of 10 images was calculated using EXCEL software program (Microsoft Corporation). To calculate the inhibitory effect, the mean value of signal (S) in 5 ISVs in drug treated embryos was divided by mean value of S in DMSO control embryos, and calculated as % inhibition using the following formula: […]

On to `Cl.Cl.O=c1cc(CN2CCOCC2)occ1OCCCCCSc1ccnc2cc(C(F)(F)F)ccc12` [EHT 1864, 5-(5-(7-(Trifluoromethyl)quinolin-4-ylthio)pentyloxy)-2-(morpholinomethyl)-4H-pyran-4-one dihydrochloride], for which the “anti-angiogenic activity in the zebrafish embryo” value is given as “dose-dependent anti-angiogenic activity”; the “toxicity in zebrafish embryos” value is “much less toxic than reference compounds Flavopiridol and SU-5416”; the “max inhibition of intersegmental vessels formation” value is on record as 77%.

Consider `CN1CCN(Cc2cc(=O)c(OCCCCCSc3ccnc4cc(C(F)(F)F)ccc34)co2)CC1.Cl.Cl.Cl` [EHT 9241, 5-(5-(7-(Trifluoromethyl)quinolin-4-ylthio)pentyloxy)-2-((4-methylpiperazin-1-yl)methyl)-4H-pyran-4-one trihydrochloride], for which the “max inhibition of intersegmental vessels formation” value turned out to be 40%.

For the origin of these results see patent US7514432B2, “Compounds and methods of treating cell proliferative diseases, retinopathies and arthritis” (Exonhit Therapeutics SA, priority 2003, dated 2009).
